The nature of series [1]: % of radioactivity recovered as M3 in plasma following intravenous administration of [14C] aliskiren hemifumarate at 10 mg.Kg-1 level in rat. The format is ADME, organism-based, Albino HAN:WIST. To be noted: in vivo.
The nature of series [2]: % of radioactivity recovered as M3 in faeces following oral administration of [14C] aliskiren hemifumarate at 100 mg.Kg-1 level in rat. Format: ADME, organism-based, Albino HAN:WIST, Feces. To be noted: in vivo.
Series [3] is described as follows: % aliskiren hemifumarate recovered as M3 in urine following single oral dose of 300 mg [14C]SPP100 studied in healthy men. The format is ADME, organism-based. To be noted: human, in vivo, at 300 mg.
The nature of series [4]: % aliskiren recovered as M3 of receiver rat following duodenal infusion of radioactivity through bile from donor rat treated with single intravenous administration of 10 mg.Kg-1 [14C] aliskiren hemifumarate. Format: ADME, organism-based, HAN:WIST(SPF). To be noted: in vivo.
Series [5] is described as follows: % aliskiren recovered as M3 in hydrolysed following single intravenous administration of 10 mg.Kg-1 [14C] aliskiren hemifumarate in male rat. Format: ADME, organism-based, HAN:WIST(SPF), Bile. The settings on record: in vivo.
The nature of series [6]: % aliskiren hemifumarate recovered as M3 in faeces following single oral dose of 300 mg [14C]SPP100 studied in healthy men. The format is ADME, organism-based, Feces. The settings on record: human, in vivo, at 300 mg.
A short description of series [7]: % of radioactivity recovered as M3 in faeces following intravenous administration of [14C] aliskiren hemifumarate at 10 mg.Kg-1 level in rat. The format is ADME, organism-based, Albino HAN:WIST, Feces. The settings on record: in vivo.
Series [8] can be described thus: % of radioactivity recovered as M3 in plasma following oral administration of [14C] aliskiren hemifumarate at 100 mg.Kg-1 level in rat. The format is ADME, organism-based, Albino HAN:WIST. To be noted: in vivo.
Series [9] is described as follows: % of radioactivity recovered as M3 in urine following oral administration of [14C] aliskiren hemifumarate at 100 mg.Kg-1 level in rat. Format: ADME, organism-based, Albino HAN:WIST. To be noted: in vivo.
Series [10] is described as follows: % aliskiren hemifumarate recovered as M3 in urine and faeces following single oral dose of 300 mg [14C]SPP100 studied in healthy men. The format is ADME, organism-based, Urine/Feces. To be noted: human, in vivo, at 300 mg.
Series [11] is described as follows: % aliskiren hemifumarate (0-168h) recovered as M3 in urine following single intravenous dose of [14C] aliskiren hemifumarate at 1 mg.Kg-1 level in marmoset. Format: ADME, organism-based, Callithrix jacchus. To be noted: in vivo.
Series [12] in a line: % aliskiren hemifumarate (0-72h) recovered as M3 in faeces following single oral dose of [14C] aliskiren hemifumarate at 3 mg.Kg-1 level in marmoset. The format is ADME, organism-based, Callithrix jacchus, Feces. To be noted: in vivo.
A short description of series [13]: % aliskiren recovered as M3 in urine following single intravenous administration of 10 mg.Kg-1 [14C] aliskiren hemifumarate in male rat. Format: ADME, organism-based, HAN:WIST(SPF). To be noted: in vivo.
The nature of series [14]: % aliskiren hemifumarate (0-168h) recovered as M3 in urine following single oral dose of [14C] aliskiren hemifumarate at 3 mg.Kg-1 level in marmoset. The format is ADME, organism-based, Callithrix jacchus. To be noted: in vivo.
Series [15] can be described thus: % of radioactivity recovered as M3 in urine following intravenous administration of [14C] aliskiren hemifumarate at 10 mg.Kg-1 level in rat. The format is ADME, organism-based, Albino HAN:WIST. The settings on record: in vivo.
Series [16] is described as follows: % aliskiren recovered as M3 in bile following single intravenous administration of 10 mg.Kg-1 [14C] aliskiren hemifumarate in male rat. The format is ADME, organism-based, HAN:WIST(SPF). The settings on record: in vivo.
Series [17] in a line: % aliskiren hemifumarate (0-72h) recovered as M3 in faeces following single intravenous dose of [14C] aliskiren hemifumarate at 1 mg.Kg-1 level in marmoset. The format is ADME, organism-based, Callithrix jacchus, Feces. To be noted: in vivo.
Series [18] is described as follows: % aliskiren recovered as M4 in urine following single intravenous administration of 10 mg.Kg-1 [14C] aliskiren hemifumarate in male rat. The format is ADME, organism-based, HAN:WIST(SPF). To be noted: in vivo.
A short description of series [19]: % aliskiren recovered as M4 of receiver rat following duodenal infusion of radioactivity through bile from donor rat treated with single intravenous administration of 10 mg.Kg-1 [14C] aliskiren hemifumarate. The format is ADME, organism-based, HAN:WIST(SPF). The settings on record: in vivo.
The nature of series [20]: % aliskiren hemifumarate recovered as M4 in urine following single oral dose of 300 mg [14C]SPP100 studied in healthy men. The settings on record: human, in vivo, at 300 mg. Format: ADME, organism-based.
Series [21] can be described thus: % of radioactivity recovered as M4 in faeces following intravenous administration of [14C] aliskiren hemifumarate at 10 mg.Kg-1 level in rat. The format is ADME, organism-based, Albino HAN:WIST, Feces. The settings on record: in vivo.
Series [22] is described as follows: % aliskiren hemifumarate recovered as M4 in faeces following single oral dose of 300 mg [14C]SPP100 studied in healthy men. Format: ADME, organism-based, Feces. The settings on record: human, in vivo.
Series [23] in a line: % aliskiren recovered as M4 in hydrolysed following single intravenous administration of 10 mg.Kg-1 [14C] aliskiren hemifumarate in male rat. Format: ADME, organism-based, HAN:WIST(SPF), Bile. The settings on record: in vivo.
Series [24] can be described thus: % aliskiren hemifumarate recovered as M4 in urine and faeces following single oral dose of 300 mg [14C]SPP100 studied in healthy men. The format is ADME, organism-based, Urine/Feces. The settings on record: human, in vivo, at 300 mg.
A short description of series [25]: % aliskiren hemifumarate (0-168h) recovered as M4 in urine following single oral dose of [14C] aliskiren hemifumarate at 3 mg.Kg-1 level in marmoset. The format is ADME, organism-based, Callithrix jacchus. The settings on record: in vivo.
Series [26] can be described thus: % aliskiren recovered as M4 in bile following single intravenous administration of 10 mg.Kg-1 [14C] aliskiren hemifumarate in male rat. Format: ADME, organism-based, HAN:WIST(SPF). The settings on record: in vivo.
Series [27] is described as follows: % aliskiren hemifumarate (0-72h) recovered as M4 in faeces following single intravenous dose of [14C] aliskiren hemifumarate at 1 mg.Kg-1 level in marmoset. Format: ADME, organism-based, Callithrix jacchus, Feces. To be noted: in vivo.
Series [28] in a line: % of radioactivity recovered as M4 in urine following oral administration of [14C] aliskiren hemifumarate at 100 mg.Kg-1 level in rat. Format: ADME, organism-based, Albino HAN:WIST. To be noted: in vivo.
The nature of series [29]: % of radioactivity recovered as M4 in urine following intravenous administration of [14C] aliskiren hemifumarate at 10 mg.Kg-1 level in rat. The settings on record: in vivo. Format: ADME, organism-based, Albino HAN:WIST.
Series [30] in a line: % of radioactivity recovered as M4 in plasma following intravenous administration of [14C] aliskiren hemifumarate at 10 mg.Kg-1 level in rat. Format: ADME, organism-based, Albino HAN:WIST. To be noted: in vivo.
The nature of series [31]: % of radioactivity recovered as M4 in plasma following oral administration of [14C] aliskiren hemifumarate at 100 mg.Kg-1 level in rat. The format is ADME, organism-based, Albino HAN:WIST. To be noted: in vivo.
Series [32] is described as follows: % aliskiren hemifumarate (0-72h) recovered as M4 in faeces following single oral dose of [14C] aliskiren hemifumarate at 3 mg.Kg-1 level in marmoset. The format is ADME, organism-based, Callithrix jacchus, Feces. The settings on record: in vivo.
Series [33] in a line: % aliskiren hemifumarate (0-168h) recovered as M4 in urine following single intravenous dose of [14C] aliskiren hemifumarate at 1 mg.Kg-1 level in marmoset. Format: ADME, organism-based, Callithrix jacchus. To be noted: in vivo.
Series [34] is described as follows: % of radioactivity recovered as M4 in faeces following oral administration of [14C] aliskiren hemifumarate at 100 mg.Kg-1 level in rat. Format: ADME, organism-based, Albino HAN:WIST, Feces. The settings on record: in vivo.

Structures are written as SMILES.

Take `COc1ccc(C[C@@H](C[C@H](N)[C@@H](O)C[C@H](C(=O)NCC(C)(C)C(N)=O)C(C)C)C(C)C)cc1OCCCO`: the Compound recovery result is “OUTCOME = Not detected or not investigated” in series [1]; “<= 2%” in [2]; < 0.1% in series [3]; 15.2% in series [4]; 15.5% in series [5]; 0.6% in series [6]. The Compound recovery in series [7] is listed as > 2%; in [8] it was “<= 2%”; in series [9], “<= 2%”; in series [10], < 0.6%; in series [11] it was 0.4%; in series [12] it was 2%. In addition, the Compound recovery is given as 4.7% in series [13]; 0.1% in series [14]; “<= 2%” in [15]; 15.9% in series [16]; 17% in series [17].

Turning to `COc1ccc(C[C@@H](C[C@H](N)[C@@H](O)C[C@H](C(=O)NCC(C)(C)C(N)=O)C(C)C)C(C)C)cc1O`, the Compound recovery in series [18] was 0.9%; in series [19] it was “OUTCOME = Not detected”; in [20], < 0.1%; in [21] it was “OUTCOME = Not detected or not investigated”; in [22] it was “OUTCOME = Not detected”; in series [23], 4.5%. Besides, the Compound recovery is given as < 0.1% in series [24]; 0% in [25]; 1.4% in [26]; 2% in series [27]; “<= 2%” in [28]; “OUTCOME = Not detected or not investigated” in series [29]. In addition, the Compound recovery result was “OUTCOME = Not detected or not investigated” in series [30]; “<= 2%” in series [31]; 1% in series [32]; 0.1% in series [33]; “<= 2%” in series [34].

Values taken from ChEMBL document CHEMBL3508693 (2016).
